Measurements: patent publication US6444662B1 (Willmar Schwabe GmbH & Co., priority 1998, dated 2002)

Assays:
α-secretase = test: Activation of α-secretase in secα1-transfected cells (Seap release); type: cell-based, human; details: 60 min incubation, mean of triplicates
Excerpt: As the APP cassette in both constructs begins with amino-acid 7 of the β-amyloid sequence, the recognition sequence for β-secretase in the sec-fusion proteins is absent. Cleavage by γ-secretase has not been described for human APLP-2, with the result that the specificity of the fusion proteins for α-secretase only is achieved by substitution of the trans-membrane domain of APLP-2 for APP. The expression plasmid secα1 was stably transfected into human neuronal cells SY5Y. Activation of α-secretase in these secα1-transfected cells is manifested in an increased release of Seap into the cell medium. The quantity of Seap is determined, and serves as a measure of the α-secretase activity.
Test conditions: 80 000 FL-2a cells/well. V=100 μl. Incubation time: 60 min.
Concentration of the substances: 10 μg/ml.
Mean values±s.d. of triplicates.
The activation of α-secretase by the phorbol ester TPA (100 ng/ml) was measured as the positive control.

recombinant PKC-γ = recombinant PKC-γ (Homo sapiens, UniProt P05129); test: Activation of protein kinase PKC-γ (enzyme test); type: biochemical; details: control with 100 nM TPA set to 100%
Procedure: PKCγ activators are potentially suitable for activating cc-secretase. These activators are found in enzyme tests in which the recombinantly produced PKC-γ is suboptimally active. The test media were:
In the table, the control with 100 nM phorbol-12-myristate-13-acetate (TPA; stimulator of PKC-γ) was set to 100%.

[1] = Stability of hyperforin salts on storage at room temperature (content by HPLC); type: physicochemical; details: for Change in the hyperforin content, difference after 1 week / Change in the hyperforin content, difference after 4 weeks / Change in the hyperforin content, difference after 12 weeks: room temperature, brown-glass bottles, without protective gas; for Change in the hyperforin content, difference after 1 week / Change in the hyperforin content, difference after 4 weeks / Change in the hyperforin content, difference after 12 weeks / Initial value, hyperforin content (% of the stoichiometric content): HPLC; for Initial value, hyperforin content (% of the stoichiometric content): hyperforin (examples 1 to 20) or hyperforin+adhyperforin (examples 21 to 31)
Procedure: General: Melting points were measured with Elektrothermal® or B-545 (Büchi) apparatus; IR spectra were recorded with an IFS 28 (Bruker) IR-spectrometer on KBr blanks, NMR spectra with an AC 200 or Avance 200 (Bruker) in D4-methanol (200 MHz for ^1H and 50 MHz for ^13C; δ-values in ppm). HPLC determinations were performed using a Dynamax PDA-1 from Rainin, Voburn, Mass., USA. HPLC conditions (isocratic): adsorbant: Eurospher 100-C18, 10 μm. Eluant: Acetonitrile/water/phosphoric acid=85/15/0.3 (vol./vol.). Detection: 273 nm. […] Assay: Content stated in area-% with reference to the reference standard. […] Operating conditions: under red light or in darkened apparatus under protective gas (nitrogen or argon). […] They are calculated as hydrates. Abbreviations: MTBE=Methyl tert.-butyl ether. “98H/I”=n-heptane/isopropanol 98/2 (vol/vol). Mp.=melting point. anh.=anhydrous. Th=theoretical. sv=very strong.
1 This salt is used as the reference standard.

Row | SMILES | Increase in the activity of PKC-γ (recombinant PKC-γ; substance dose 1 μg/ml) [%] | Increase in the activity of PKC-γ (recombinant PKC-γ; substance dose 3 μg/ml) [%] | Increase in the activity of PKC-γ (recombinant PKC-γ; substance dose 10 μg/ml) [%] | Change in the hyperforin content, difference after 1 week [1] | Change in the hyperforin content, difference after 4 weeks [1] | Change in the hyperforin content, difference after 12 weeks [1] [%] | Initial value, hyperforin content (% of the stoichiometric content) ([1]; storage time 0) [%] | other results
1 | CCCCCCCCCCCCCC(=O)O[C@@H]1[C@@H](C)[C@@]2(O)[C@@H](C=C(CO)C[C@]3(O)C(=O)C(C)=C[C@@H]23)[C@@H]2C(C)(C)[C@]12OC(C)=O [TPA, phorbol-12-myristate-13-acetate] | – | – | – | – | – | – | – | Activity of α-secretase (secreted alkaline phosphatase, Seap) (α-secretase; positive control, 100 ng/ml): 386 RLU
2 | CC(C)=CCC[C@]1(C)[C@@H](CC=C(C)C)C[C@@]2(CC=C(C)C)C(=O)[C@]1(C(=O)C(C)C)C(=O)C(CC=C(C)C)=C2O.[Na] [Example 1, Hyperforin Sodium Salt] | 9 | 30 | 56 | – | – | – | – | –
3 | CC(C)=CCC[C@]1(C)[C@@H](CC=C(C)C)C[C@@]2(CC=C(C)C)C(=O)[C@]1(C(=O)C(C)C)C(=O)C(CC=C(C)C)=C2O [Hyperforin, hyperforin, reference compound] | 6 | 51 | 45 | – | – | – | – | Activity of α-secretase (secreted alkaline phosphatase, Seap) (α-secretase; 10 μg/ml, 80 000 cells/well): 441 RLU
4 | CC(C)=CCCC1(C)C(CC=C(C)C)CC2(CC=C(C)C)C(=O)C1(C(=O)C(C)C)C(=O)C(CC=C(C)C)=C2O.NCCCNC1CCCCC1 (centres unmarked) [Example 15] | – | – | – | −2.0% | −2.0% | −9.9 | 90.8 | –
5 | CC(C)=CCC[C@]1(C)C(CC=C(C)C)C[C@@]2(CC=C(C)C)C(=O)[C@]1(C(=O)C(C)C)C(=O)C(CC=C(C)C)=C2O.COc1cc(CN)cc(OC)c1OC (some centres unmarked) [Example 3, 3,4,5-Trimethoxybenzylamine Salt of Hyperforin] | – | – | – | +1.1% | −1.1% | −5.0 | 87.2 | –
6 | CC(C)=CCC[C@]1(C)C(CC=C(C)C)C[C@@]2(CC=C(C)C)C(=O)[C@]1(C(=O)C(C)C)C(=O)C(CC=C(C)C)=C2O.Nc1ccncc1 (some centres unmarked) [Example 16] | – | – | – | +1.4% | +0.1% | – | 94.6 | –
7 | C1CCC(NC2CCCCC2)CC1.CC(C)=CCC[C@]1(C)C(CC=C(C)C)C[C@@]2(CC=C(C)C)C(=O)[C@]1(C(=O)C(C)C)C(=O)C(CC=C(C)C)=C2O (some centres unmarked) [Example 2, N,N-Dicyclohexylamine Salt of Hyperforin] | – | – | – | – | – | – | – | Initial value, hyperforin content (titr.) ([1]; storage time 0, perchloric-acid titration): 100%
8 | C1CCNC1.CC(C)=CCC[C@]1(C)C(CC=C(C)C)C[C@@]2(CC=C(C)C)C(=O)[C@]1(C(=O)C(C)C)C(=O)C(CC=C(C)C)=C2O (some centres unmarked) [Example 5, Pyrrolidine Salt of Hyperforin] | 3 | 20 | 48 | −0.5% | – | −3.2 | 93.7 | –
